{"source": "patent US10759826B2", "about": "“15β-substituted estrone derivatives as selective inhibitors of 17β-hydroxysteroid-dehydrogenases, method of preparation and use thereof” (USTAV ORGANICKE CHEMIE A BIOCHEMIE AV CR, V.V.I., priority 2016, dated 2020)", "key": {"[1]": {"molecular_target": "T1, human 17βHSD type 5 (Homo sapiens, UniProt P42330)", "T1 construct": "made in house; host or cells: bacteria (Escherichia coli); supernatant of the lysate", "T1 sequence (P42330 1-323)": "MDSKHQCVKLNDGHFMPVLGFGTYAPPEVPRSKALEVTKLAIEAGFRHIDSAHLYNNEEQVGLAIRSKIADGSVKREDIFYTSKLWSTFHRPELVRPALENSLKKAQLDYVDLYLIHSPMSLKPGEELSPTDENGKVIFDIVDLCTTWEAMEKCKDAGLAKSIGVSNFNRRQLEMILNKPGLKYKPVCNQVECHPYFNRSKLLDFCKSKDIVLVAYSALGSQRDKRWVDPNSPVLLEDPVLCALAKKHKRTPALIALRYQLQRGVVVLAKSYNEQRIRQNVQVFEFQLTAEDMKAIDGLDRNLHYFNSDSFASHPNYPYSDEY", "assay": "Inhibition of recombinant 17βHSD type 5, tritium-labeled substrate conversion", "format": "biochemical", "settings": "1 μmol · l^−1 test substance", "method": "(§1) The inhibitory activity of the test substances was determined for individual isoenzymes from the 17βHSD family, specifically these were the types 1, 2, 3, 4, 5 and 7. Escherichia coli and mammalian cells expression systems were used for recombinant expression of individual isozymes of human 17βHSD. Only in the case of 17HSD5 the enzyme was partially purified and supernatant obtained by centrifugation of the bacterial lysate was used for testing. Systems expressing specific 17βHSD type were suspended in a reaction buffer and incubated with tritium-labeled substrates and respective cofactors at 37° C. in two parallel tests: the control arrangement (DMSO without the inhibitor) and the test arrangement (DMSO with the inhibitor). DMSO serves as a negative control in this case. After 20-30% of the substrate was converted by the activity of the enzyme to the product in a control test, both tests were terminated. Substrate and product from the test arrangement were isolated by SPE (solid phase extraction), and then separated by reverse phase HPLC. Substrate conversion was determined by integration of the signals of the substrate and product, and was expressed in %. For the purposes of the subsequent calculation of enzyme inhibition, the conversion of the control test was designated as 0% inhibition. All tests were performed in triplicates. IC50 values were subsequently determined by a standard method using the “One Ligand Binding” model of SigmaPlot kinetics module (Schustera et. al. J. Ster. Biochem. Mol. Biol. 2011, 125, 148; Möller et. al. Biioorg. Med. Chem. Lett. 2009, 19, 6740; Möller et. al. PLoS One, 2010, 5, 6, e10969)."}, "[2]": {"molecular_target": "T2, human 17βHSD type 1 (Homo sapiens, UniProt P14061)", "T2 construct": "made in house; expressing system suspended in buffer, not purified", "T2 sequence (P14061 1-328)": "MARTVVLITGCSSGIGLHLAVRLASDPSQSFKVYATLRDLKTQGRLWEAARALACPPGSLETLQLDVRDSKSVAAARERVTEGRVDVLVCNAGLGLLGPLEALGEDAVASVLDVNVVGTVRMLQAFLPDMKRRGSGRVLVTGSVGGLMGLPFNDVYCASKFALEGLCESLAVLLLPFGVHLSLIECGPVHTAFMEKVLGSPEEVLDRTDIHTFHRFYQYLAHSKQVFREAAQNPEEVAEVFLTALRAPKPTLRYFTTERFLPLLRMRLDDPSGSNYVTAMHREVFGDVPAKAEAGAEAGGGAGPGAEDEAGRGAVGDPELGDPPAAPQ", "assay": "Inhibition of recombinant 17βHSD type 1, tritium-labeled substrate conversion", "format": "biochemical", "settings": "for inhibition at 0.1 µM: 0.1 μmol · l^−1 test substance; for inhibition at 0.1 µM / inhibition at 1 µM: read-out: % of inhibition of human 17βHSD1; for inhibition at 1 µM: 1 μmol · l^−1 test substance", "method": "as §1"}, "[3]": {"tested_on": "HCT116p53-/-", "assay": "MTT cytotoxicity assay, HCT116p53-/-", "format": "cell-based", "settings": "Homo sapiens", "excerpt": "(§2) Compounds 5, 6, 7, 9, 14 and 15 were used for evaluation of antitumor activity. MTT cytotoxicity assay was used in vitro on cell lines derived from normal tissues and from tumors. Specifically, these were the K562 line (human myeloid leukemia), K562-Tax (human myeloid leukemia resistant to taxol and overexpressing PgP protein for multidrug resistance), CEM (T-lymphoblastic leukemia), CEM-DNR bulk (T-lymphoblastic leukemia resistant doxorubicin, lacking the expression of the target gene for inhibitors of topoisomerase II alpha), A549 line (human lung adenocarcinoma), HCT116p53 wt (human colon cancer), HCT116p53−/− (human colon cancer, mutant p53), U2OS line of human osteosarcoma and two fibroblast lines MRC5 and BJ as examples of non-tumor cells. Expression characteristics, profiles of susceptibility to classical antitumor drugs and methodology of the MTT cytotoxicity assay were repeatedly published (e.g. Noskova et al. Neoplasma 2002, 49, 418; S̆arek et. al. J. Med. Chem. 2003, 46, 25, 5402)."}, "[4]": {"tested_on": "U2OS", "assay": "MTT cytotoxicity assay, U2OS", "format": "cell-based", "settings": "Homo sapiens", "excerpt": "as §2"}, "[5]": {"tested_on": "T47D cells", "assay": "E1 induced proliferation of T47D cells, 7 days, cell count", "format": "cell-based, human", "settings": "FIG. 1", "source_text": "Two days prior to testing of compounds, growth medium was changed to medium without phenol red, supplemented with 2 mmol^·l^−1 Glutamax and 4% FBS depleted of lipophilic components (including the endogenous estrogenic substances) (Hyclone, GE Healthcare Life Sciences, USA). Two days after the medium replacement, the cells were harvested, counted and resuspended in a medium. Cells were dispensed with liquid dispenser Multidrop (Thermo Fisher Scientific, Waltham, USA), to the cell culture treated, 12-well plates (Corning Inc., NY, USA) at 100 000 cells/well in 1 mL of total media volume. Compounds diluted in the medium were added 24 h later and cells were incubated for 7 more days with or without 1 μmol^·l^−1 E1. Growth medium was changed during the experiment on day 3, and freshly diluted compounds were added to cells again. After 7 days of cell cultivation with compounds, cells were harvested and counted. Cell number was normalized and 100% was attributed to cells cultivated in the presence of 1 μmol^·l^−1 E1 and 0% to the cells cultivated without any added compound."}, "[6]": {"tested_on": "K562", "assay": "MTT cytotoxicity assay, K562", "format": "cell-based", "settings": "Homo sapiens", "excerpt": "as §2"}, "[7]": {"tested_on": "CEM-DNR-bulk", "assay": "MTT cytotoxicity assay, CEM-DNR-bulk", "format": "cell-based", "excerpt": "as §2"}, "[8]": {"tested_on": "embryo", "assay": "Toxicity in the CAM model, dead and surviving embryos", "format": "in vivo, White Leghorn eggs", "settings": "50 μmol·l^−1, after 6 days of treatment, FIG. 2C", "method": "The toxicity after 6 days of the treatment was characterized by the number of dead embryos, eventual visible macroscopic abnormalities were evaluated as well."}, "[9]": {"tested_on": "K562-Tax", "assay": "MTT cytotoxicity assay, K562-Tax", "format": "cell-based", "settings": "Homo sapiens", "excerpt": "as §2"}, "[10]": {"tested_on": "CEM", "assay": "MTT cytotoxicity assay, CEM", "format": "cell-based", "settings": "Homo sapiens, CCRF-CEM", "excerpt": "as §2"}, "[11]": {"tested_on": "HCT116p53 wt", "assay": "MTT cytotoxicity assay, HCT116p53 wt", "format": "cell-based", "settings": "Homo sapiens", "excerpt": "as §2"}, "[12]": {"tested_on": "A549", "assay": "MTT cytotoxicity assay, A549", "format": "cell-based", "settings": "Homo sapiens", "excerpt": "as §2"}, "[13]": {"tested_on": "17βHSD", "assay": "Inhibition of 17βHSD in vivo, E2 in plasma of mice", "set-up": "species or system mice (NMRI)", "settings": "20 mg/kg daily, orally; for E2 in plasma, individual mice: 20 mg/kg"}, "[14]": {"molecular_target": "T3, human 17βHSD1 (Homo sapiens, UniProt P14061)", "T3 sequence (P14061 1-328)": "T2 sequence (P14061 1-328)", "assay": "17βHSD inhibition in MCF-7 cells transfected with human 17βHSD1, E1 in supernatant", "format": "cell-based", "set-up": "expressed in transfected cells; host or cells: MCF-7", "settings": "10 μmol·l^−1", "method": "(§3) For this experiment, non-cytotoxic concentrations of estrone derivative (10 μmol·l^−1) were used. E1 levels were determined by an immuno-enzymatic assay."}, "[15]": {"molecular_target": "T3, human 17βHSD1", "assay": "17βHSD inhibition in CHO cells transfected with human 17βHSD1, E1 in supernatant", "format": "cell-based", "set-up": "expressed in transfected cells", "settings": "10 μmol·l^−1", "method": "as §3"}}, "note": "“And” between values parts separate entries of the source, which are not always exact repeats. Equal entries are not always repeated. “Also recorded” adds a separate entry of the source."}
{"smiles": "CCOc1ccc(CC[C@@H]2CC(=O)[C@@]3(C)CC[C@@H]4c5ccc(O)cc5CC[C@H]4[C@H]23)cc1", "note": "[Compound 12, 15β-(4-Ethoxyphenethyl)-3-hydroxy-estra-1,3,5(10)-trien-17-one]", "values": [{"measurement": "% of inhibition of human 17βHSD5", "setting": "[1]", "result": 80, "unit": "%"}, {"measurement": "melting point", "result": 173, "unit": "°C"}, {"measurement": "inhibition at 0.1 µM", "setting": "[2]", "result": 85, "unit": "%"}, {"measurement": "inhibition at 1 µM", "setting": "[2]", "result": 88, "unit": "%"}]}
{"smiles": "COc1ccc(CC[C@@H]2CC(=O)[C@@]3(C)CC[C@@H]4c5ccc(O)cc5CC[C@H]4[C@H]23)cc1", "note": "[Compound 9, 3-Hydroxy-15β-(4-methoxyphenethyl)-estra-1,3,5 (10)-trien-17-one]", "values": [{"measurement": "IC50", "setting": "[3]", "result": 35.7, "unit": "µM"}, {"measurement": "IC50", "setting": "[4]", "result": 45.3, "unit": "µM"}, {"measurement": "effect on T47D proliferation, compound alone", "setting": "[5]; 1 μmol·l^−1, without E1, 7 days", "result": "weakly pro-proliferative"}, {"measurement": "effect on E1-induced proliferation of T47D cells", "setting": "[5]; incubated together with 0.1 nmol·l^−1 E1, 7 days", "result": "reverses the pro-proliferative activity of E1; also recorded: blocks E1-induced proliferation"}, {"measurement": "% of inhibition of human 17βHSD5", "setting": "[1]", "result": 91, "unit": "%"}, {"measurement": "IC50", "setting": "[6]", "result": 27.7, "unit": "µM"}, {"measurement": "IC50", "setting": "[7]", "result": 22.1, "unit": "µM"}, {"measurement": "toxicity, dead/alive eggs", "setting": "[8]", "result": "No specific toxicity"}, {"measurement": "IC50", "setting": "[9]", "result": 9.12, "unit": "µM"}, {"measurement": "IC50", "setting": "[10]", "result": 21.4, "unit": "µM"}, {"measurement": "IC50", "setting": "[11]", "result": 29.4, "unit": "µM"}, {"measurement": "IC50", "setting": "[12]", "result": 41, "unit": "µM"}, {"measurement": "E2 in plasma, mean value ± σ", "setting": "[13]; 7 days", "result": "5693 ± 1034", "unit": "pg/mL"}, {"measurement": "E2 in plasma, individual mice", "setting": "[13]; 7 days", "result": "4927 pg/mL and 4357 pg/mL and 6020 pg/mL and 7379 pg/mL and 5857 pg/mL and 5617 pg/mL"}, {"measurement": "E2 in plasma, mean value ± σ", "setting": "[13]; 14 days", "result": "3874 ± 1253", "unit": "pg/mL"}, {"measurement": "E2 in plasma, individual mice", "setting": "[13]; 14 days", "result": "6020 pg/mL and 2668 pg/mL and 2657 pg/mL and 3566 pg/mL and 4312 pg/mL and 4025 pg/mL"}, {"measurement": "E1 in supernatant, MCF-7", "setting": "[14]; 8 hr.", "result": 1300, "unit": "pg/mL"}, {"measurement": "E1 in supernatant, MCF-7", "setting": "[14]; 24 hr.", "result": 1182, "unit": "pg/mL"}, {"measurement": "E1 in supernatant, CHO", "setting": "[15]; 8 hr.", "result": 1171, "unit": "pg/mL"}, {"measurement": "E1 in supernatant, CHO", "setting": "[15]; 24 hr.", "result": 739, "unit": "pg/mL"}, {"measurement": "inhibition at 0.1 µM", "setting": "[2]", "result": 91, "unit": "%"}, {"measurement": "inhibition at 1 µM", "setting": "[2]", "result": 100, "unit": "%"}, {"measurement": "IC50", "setting": "[2]; read-out: 17βHSD1 IC50", "result": 0.01, "unit": "µM"}]}
